# Patent US20060052459A1, “Antifungal medicaments comprising arylamidine derivatives” (priority 2002, published 2006)
# Like-named read-outs stand apart in the source and are kept apart here.
# Assays:
# [1] = tested on: Aspergillus fumigatus strain IP 864.64; experiment: In vitro antifungal growth inhibition on microtitre plates (optical density 590 nm), compounds alone or as mixtures (Wadley method); assay type: cell-based; conditions: Aspergillus fumigatus, IP864.64, 48 h, 48 hours at 30° C.; for inhibition at 0.026 µg/mL: dose 0.026 μg/ml; for inhibition at 0.098 µg/mL: dose 0.098 μg/ml; for inhibition at 0.39 µg/mL: dose 0.39 μg/ml; for inhibition at 1.562 µg/mL: dose 1.562 μg/ml; for inhibition at 6.25 µg/mL: dose 6.25 μg/ml; for inhibition at 25 µg/mL: dose 25 μg/ml; for inhibition at 100 µg/mL: dose 100 μg/ml
# Experimental: (§1) The following fungi were used for this study: Candida albicans strains IP 48.72 (ATCC 10231) and Aspergillus fumigatus strain IP 864.64 obtained from the Collection Nationale de Cultures de Microorganismes (CNCM) of the Institut Pasteur. The strains are cultured on Yeast Extract-Peptone-Dextrose (YEPD) agar medium comprising 0.5% yeast extract, 0.5% bactopeptone, 2% glucose and 2% agar at 30° C. and in the dark.
# (§2) All these compounds were prepared in a DMSO solution at a final concentration of 100 mg/ml. The stock solutions are stored at −20° C. up to the time of use.
# (§3) The trials are carried out in RPMI 1640 medium with no sodium bicarbonate, but with L-glutamine buffered with 0.165 mol per litre of 3-[N-morpholino]propanesulphonic acid (MOPS), enriched (<>) or otherwise (<>) with 2% glucose. The pH of this medium is adjusted to 7.0. The medium is sterilized by filtration (0.22 μm) and stored at 4° C. up to the time of use.
# (§4) All the antifungal tests are carried out on microtitre plates. The initial suspensions of spores are prepared in a sterile solution containing 0.85% NaCl, supplemented with Tween 80 at 0.01%. These initial suspensions are then diluted in the culture medium (RPMI 1640 enriched or otherwise with 2% glucose) to a final concentration of 10^4 spores per ml. The measurements of viability of each inoculum are verified by subcultures of a volume of 300 μl on YEPD agar medium.
# (§5) The antifungal compounds are tested in a range of concentrations ranging from 0.026 to 100 μg of active ingredient/ml. These antifungal compounds are then diluted in RPMI 1640 medium enriched or otherwise with 2% glucose. A final DMSO concentration of 0.2% is used throughout the measurements. Each trial is carried out on a series of dilutions of antifungal compounds, in duplicate. The antifungal dilutions (0.1 ml) and the fungal inoculum (0.1 ml) are added to each of the wells of the microtitre plate. The plates are then read with a spectrophotometer (ELX 800UV Bio-Tek Instruments, Inc) at a wavelength of 590 nm. The plates are read immediately after (t=0) and after 48 hours' incubation at 30° C. and in the dark. The optical density values obtained are correlated with fungal growth between the times t=0 and t=48 hours. The optical density values are used to calculate the percentage inhibition of growth for each concentration of antifungals by comparison with the control. The values are then used to plot a dose-response curve and the EC50 value is determined for each fungus and each compound with the aid of the Grafit 5.0® software (Erithacus software Ltd).
# (§6) The method which was used to measure the type of interaction existing between the antifungal compounds in the form of mixtures is the Wadley method.
# (§7) In the Wadley approach, the dose-response curve for each of the compounds A and B, and for the mixture AB, is constructed. The EC50 is calculated for each compound taken individually and for the mixture. If a and b are the absolute quantities of the compounds A and B in the mixture (a=1, b=1, a+b=2 under our conditions), the expected effective concentration (EC50exp) may be calculated in the following manner: EC50exp=(a+b)/[a/EC50A)+b/(EC50B)
# (§8) The Wadley approach may be used to estimate the type of interaction existing between the fungal compounds, regardless of their concentration. Its reliability is not dependent on the percentage inhibition. The type of interaction between two compounds is given by the level of interaction (LI) which corresponds to the ratio between the expected effective concentration (EC50exp) and that observed (EC50obs) of the mixture. The nature of the interaction obtained by the Wadley formula is presented in Table 1 (see U. Gisi, Synergistic interaction in fungicide mixtures, 1996. Phytopathology 86, 1273-1279) below.
# (§9) The experimental conditions are the same as previously described.
# [2] = tested on: Candida albicans strains IP 48.72 (ATCC 10231); experiment: as above; assay type: cell-based; conditions: Candida albicans, ATCC10231, 48 h, 48 hours at 30° C.; for inhibition at 0.026 µg/mL: dose 0.026 μg/ml; for inhibition at 0.098 µg/mL: dose 0.098 μg/ml; for inhibition at 0.39 µg/mL: dose 0.39 μg/ml; for inhibition at 1.562 µg/mL: dose 1.562 μg/ml; for inhibition at 6.25 µg/mL: dose 6.25 μg/ml; for inhibition at 25 µg/mL: dose 25 μg/ml; for inhibition at 100 µg/mL: dose 100 μg/ml; for EC50: read-out: EC50
# Experimental: as §1, §2, §3, §4, §5, §6, §7, §8, §9
# [3] = second study, strain IP 864.64, RPMI 1640 medium enriched with 2% glucose, read-out: EC50
# [4] = minimal RPMI 1640 medium (MM), used alone
# [5] = rich RPMI 1640 medium (RM), used alone
# [6] = second study, strain IP 48.72, RPMI 1640 medium enriched with 2% glucose
compound,measurement,setting,value
"OC(Cn1cncn1)(Cn1cncn1)c1ccc(F)cc1F [Compound II.1, fluconazole]",inhibition at 0.026 µg/mL,[1]; minimal RPMI 1640 medium (MM),4.8%
same,inhibition at 0.026 µg/mL,[1]; rich RPMI 1640 medium (RM),11.2%
same,inhibition at 0.098 µg/mL,[1]; minimal RPMI 1640 medium (MM),4.8%
same,inhibition at 0.098 µg/mL,[1]; rich RPMI 1640 medium (RM),20.7%
same,inhibition at 0.39 µg/mL,[1]; minimal RPMI 1640 medium (MM),5.8%
same,inhibition at 0.39 µg/mL,[1]; rich RPMI 1640 medium (RM),25.9%
same,inhibition at 1.562 µg/mL,[1]; minimal RPMI 1640 medium (MM),8.7%
same,inhibition at 1.562 µg/mL,[1]; rich RPMI 1640 medium (RM),27.6%
same,inhibition at 6.25 µg/mL,[1]; minimal RPMI 1640 medium (MM),7.7%
same,inhibition at 6.25 µg/mL,[1]; rich RPMI 1640 medium (RM),28.4%
same,inhibition at 25 µg/mL,[1]; minimal RPMI 1640 medium (MM),23.1%
same,inhibition at 25 µg/mL,[1]; rich RPMI 1640 medium (RM),48.3%
same,inhibition at 100 µg/mL,[1]; minimal RPMI 1640 medium (MM),41.4%
same,inhibition at 100 µg/mL,[1]; rich RPMI 1640 medium (RM),46.6%
same,EC50,"[1]; minimal RPMI 1640 medium (MM), extrapolated with Grafit 5.0, read-out: EC50 (extrapolated from the dose-response curves)",575 µg/mL
same,EC50,"[1]; rich RPMI 1640 medium (RM), extrapolated with Grafit 5.0, read-out: EC50 (extrapolated from the dose-response curves)",125 µg/mL
same,EC50,[1]; [3],125 µg/mL
same,inhibition at 0.026 µg/mL,[2]; minimal RPMI 1640 medium (MM),2.1%
same,inhibition at 0.026 µg/mL,[2]; rich RPMI 1640 medium (RM),11.1%
same,inhibition at 0.098 µg/mL,[2]; minimal RPMI 1640 medium (MM),9.7%
same,inhibition at 0.098 µg/mL,[2]; rich RPMI 1640 medium (RM),32.5%
same,inhibition at 0.39 µg/mL,[2]; minimal RPMI 1640 medium (MM),38.5%
same,inhibition at 0.39 µg/mL,[2]; rich RPMI 1640 medium (RM),72.6%
same,inhibition at 1.562 µg/mL,[2]; minimal RPMI 1640 medium (MM),64.7%
same,inhibition at 1.562 µg/mL,[2]; rich RPMI 1640 medium (RM),86.8%
same,inhibition at 6.25 µg/mL,[2]; minimal RPMI 1640 medium (MM),77.7%
same,inhibition at 6.25 µg/mL,[2]; rich RPMI 1640 medium (RM),94%
same,inhibition at 25 µg/mL,[2]; minimal RPMI 1640 medium (MM),81.9%
same,inhibition at 25 µg/mL,[2]; rich RPMI 1640 medium (RM),95.3%
same,inhibition at 100 µg/mL,[2]; minimal RPMI 1640 medium (MM),91.6%
same,inhibition at 100 µg/mL,[2]; rich RPMI 1640 medium (RM),36.1%
same,EC50,[2]; [4],0.96 µg/mL
same,EC50,[2]; [5],0.19 µg/mL
same,EC50,[2]; [6],0.354 µg/mL
"CCC(C)n1ncn(-c2ccc(N3CCN(c4ccc(OCC5COC(Cn6cncn6)(c6ccc(Cl)cc6Cl)O5)cc4)CC3)cc2)c1=O (centres unmarked) [Compound II.2, itraconazole]",inhibition at 0.026 µg/mL,[1]; minimal RPMI 1640 medium (MM),2.2%
same,inhibition at 0.026 µg/mL,[1]; rich RPMI 1640 medium (RM),18.6%
same,inhibition at 0.098 µg/mL,[1]; minimal RPMI 1640 medium (MM),31.8%
same,inhibition at 0.098 µg/mL,[1]; rich RPMI 1640 medium (RM),47.5%
same,inhibition at 0.39 µg/mL,[1]; minimal RPMI 1640 medium (MM),49.3%
same,inhibition at 0.39 µg/mL,[1]; rich RPMI 1640 medium (RM),88.6%
same,inhibition at 1.562 µg/mL,[1]; minimal RPMI 1640 medium (MM),99.6%
same,inhibition at 1.562 µg/mL,[1]; rich RPMI 1640 medium (RM),99.2%
same,inhibition at 6.25 µg/mL,[1]; minimal RPMI 1640 medium (MM),100%
same,inhibition at 6.25 µg/mL,[1]; rich RPMI 1640 medium (RM),100%
same,inhibition at 25 µg/mL,[1]; minimal RPMI 1640 medium (MM),100%
same,inhibition at 25 µg/mL,[1]; rich RPMI 1640 medium (RM),100%
same,inhibition at 100 µg/mL,[1]; minimal RPMI 1640 medium (MM),99%
same,inhibition at 100 µg/mL,[1]; rich RPMI 1640 medium (RM),100%
same,EC50,"[1]; minimal RPMI 1640 medium (MM), used alone, read-out: EC50",0.27 µg/mL
same,EC50,"[1]; rich RPMI 1640 medium (RM), used alone, read-out: EC50",0.27 µg/mL
same,EC50,[1]; [3],0.187 µg/mL
same,inhibition at 0.026 µg/mL,[2]; minimal RPMI 1640 medium (MM),58.1%
same,inhibition at 0.026 µg/mL,[2]; rich RPMI 1640 medium (RM),44.7%
same,inhibition at 0.098 µg/mL,[2]; minimal RPMI 1640 medium (MM),75.4%
same,inhibition at 0.098 µg/mL,[2]; rich RPMI 1640 medium (RM),85.1%
same,inhibition at 0.39 µg/mL,[2]; minimal RPMI 1640 medium (MM),78.2%
same,inhibition at 0.39 µg/mL,[2]; rich RPMI 1640 medium (RM),86.2%
same,inhibition at 1.562 µg/mL,[2]; minimal RPMI 1640 medium (MM),74.6%
same,inhibition at 1.562 µg/mL,[2]; rich RPMI 1640 medium (RM),85.1%
same,inhibition at 6.25 µg/mL,[2]; minimal RPMI 1640 medium (MM),78.6%
same,inhibition at 6.25 µg/mL,[2]; rich RPMI 1640 medium (RM),86.2%
same,inhibition at 25 µg/mL,[2]; minimal RPMI 1640 medium (MM),87.9%
same,inhibition at 25 µg/mL,[2]; rich RPMI 1640 medium (RM),95.2%
same,inhibition at 100 µg/mL,[2]; minimal RPMI 1640 medium (MM),95.2%
same,inhibition at 100 µg/mL,[2]; rich RPMI 1640 medium (RM),95.2%
same,EC50,[2]; [4],0.022 µg/mL
same,EC50,[2]; [5],0.017 µg/mL
same,EC50,[2]; [6],0.082 µg/mL
